The values below come from patent publication US7998950B2, “Antiviral compounds” (Gilead Sciences, Inc., priority 2008, dated 2011).

The experiment relates to HIV-IIIb. Put plainly: Antiviral assay in MT-2 cells infected with HIV-IIIb. The format is cell-based. The following applies: Human immunodeficiency virus 1, IIIB, MT2, 120 h, MT-2 cells infected with HIV-IIIb, m.o.i. 0.01, 10% FBS, 5 days at 37° C., CellTiter-Glo chemiluminescence; read-out: EC50 in MT-2 cells. Background: ATP-based viability assays read luminescence as a measure of living cells.
Usually EC50 stands for the concentration that produces a half-maximal response. On to `CC(C)(C)NC(=O)C1=Cn2c(=O)c(C(=O)NCCO)c(O)c3ncc(Cc4ccc(F)cc4)c(c32)O1` [Example 139], for which the concentration giving a half-maximal response (EC50) is 2.4 nM.
As for `CNC(=O)c1c(O)c2ncc(Cc3ccc(F)cc3)c3c2n(c1=O)C=C(C(=O)NCC(C)(C)O)O3` [Example 140], the EC50 turned out to be 3.5 nM.
As for `CNC(=O)c1c(O)c2ncc(Cc3ccc(F)cc3)c3c2n(c1=O)C=C(C(=O)NCCOC(F)(F)F)O3` [Example 141], the concentration giving a half-maximal response (EC50) is 3.7 nM.
In the case of `CNC(=O)c1c(O)c2ncc(Cc3ccc(F)cc3)c3c2n(c1=O)C=C(C(=O)NCC1(O)CCCCC1)O3` [Example 142] it was 1.9 nM; in that of `N#CCNC(=O)c1c(O)c2ncc(Cc3ccc(F)cc3)c3c2n(c1=O)CC(F)(F)CN3` [Example 143], 4 nM; in that of `O=C(NCCN1CCNS1(=O)=O)c1c(O)c2ncc(Cc3ccc(F)cc3)c3c2n(c1=O)CC(F)(F)CN3` [Example 144], 20 nM.
Then `CC(C)(CO)CNC(=O)c1c(O)c2ncc(Cc3ccc(F)cc3)c3c2n(c1=O)CC(F)(F)CN3` [Example 145], with 9 nM; and `O=C(NCCc1ncc[nH]1)c1c(O)c2ncc(Cc3ccc(F)cc3)c3c2n(c1=O)CC(F)(F)CN3` [Example 146], with 5.5 nM; and `Cn1cnnc1CCNC(=O)c1c(O)c2ncc(Cc3ccc(F)cc3)c3c2n(c1=O)CC(F)(F)CN3` [Example 148], with 45.6 nM.
In the case of `O=C(NCC(F)(F)CO)c1c(O)c2ncc(Cc3ccc(F)cc3)c3c2n(c1=O)CC(F)(F)CN3` [Example 149], the EC50 turned out to be 5 nM.
On to `O=C(NCC1(CO)CCC1)c1c(O)c2ncc(Cc3ccc(F)cc3)c3c2n(c1=O)CC(F)(F)CN3` [Example 150], for which the half-maximal effective concentration (EC50) worked out at 6 nM.
In the case of `O=C(NCCCN1CCCC1)c1c(O)c2ncc(Cc3ccc(F)cc3)c3c2n(c1=O)CC(F)(F)CN3` [Example 151], the EC50 worked out at 23 nM.
With `O=C(NCC1(CO)CC1)c1c(O)c2ncc(Cc3ccc(F)cc3)c3c2n(c1=O)CC(F)(F)CN3` [Example 152], the concentration giving a half-maximal response (EC50) turned out to be 7 nM.
In the case of `O=C(NCCCN1CCOCC1)c1c(O)c2ncc(Cc3ccc(F)cc3)c3c2n(c1=O)CC(F)(F)CN3` [Example 153] it was 12 nM.
Take `CC(C)(C#N)CNC(=O)c1c(O)c2ncc(Cc3ccc(F)cc3)c3c2n(c1=O)CC(F)(F)CN3` [Example 154]: the concentration giving a half-maximal response (EC50) is 6 nM.
Turning to `O=C(NCCN1CCCC1)c1c(O)c2ncc(Cc3ccc(F)cc3)c3c2n(c1=O)CC(F)(F)CN3` [Example 156], the half-maximal effective concentration (EC50) stood at 34 nM.
Then `C[C@@H]1CCCN1CCCNC(=O)c1c(O)c2ncc(Cc3ccc(F)cc3)c3c2n(c1=O)CC(F)(F)CN3` [Example 158], with 8.2 nM; and `O=C(NCCCN1CCCC1=O)c1c(O)c2ncc(Cc3ccc(F)cc3)c3c2n(c1=O)CC(F)(F)CN3` [Example 161], with 4.2 nM.
Regarding `O=C(NCCN1CCCS1(=O)=O)c1c(O)c2ncc(Cc3ccc(F)cc3)c3c2n(c1=O)CC(F)(F)CN3` [Example 162], the half-maximal effective concentration (EC50) worked out at 4.6 nM.
As to `CNC(=O)c1c(O)c2ncc(Cc3ccc(F)cc3)c3c2n(c1=O)CC(F)(F)CN3C` [Example 163], the EC50 worked out at 18.5 nM.
Regarding `CNC(=O)[C@@H]1Cn2c(=O)c(C(=O)NCCOC)c(O)c3ncc(Cc4ccc(F)cc4)c(c32)O1` [Example 164], the EC50 was determined as 37 nM.
In the case of `CCNC(=O)c1c(O)c2ncc(Cc3ccc(F)cc3)c3c2n(c1=O)C[C@@H](C(=O)NC)O3` [Example 165] it was 8 nM.
In the case of `CNC(=O)[C@@H]1Cn2c(=O)c(C(=O)NCCCO)c(O)c3ncc(Cc4ccc(F)cc4)c(c32)O1` [Example 166], the concentration for a half-maximal effect (EC50) came out at 9 nM.
In the case of `CNC(=O)[C@@H]1Cn2c(=O)c(C(N)=O)c(O)c3ncc(Cc4ccc(F)cc4)c(c32)O1` [Example 167] it was 25.6 nM.
Then `CNC(=O)c1c(O)c2ncc(Cc3ccc(F)cc3)c3c2n(c1=O)C[C@@H](C(N)=O)O3` [Example 168], with 12 nM; and `CNC(=O)c1c(O)c2ncc(Cc3ccc(F)cc3)c3c2n(c1=O)C[C@@H](C(=O)NCC(C)(C)O)O3` [Example 174], with 2.6 nM.
